From US20130209543A1, “ENHANCED TREATMENT REGIMENS USING MTOR INHIBITORS” (Intellikine LLC, priority 2011, published 2013)

Assay: Additional study: grade 3 or greater treatment-emergent adverse events (Table 10)
Assay type: in vivo, human

## CC(C)n1nc(-c2ccc3oc(N)nc3c2)c2c(N)ncnc21 [compound A]
Total (N = 91)
  Anaemia, grade 3 or greater TEAE: 6 (7%)
  Aspartate aminotransferase increase, grade 3 or greater TEAE: 2 (2%)
  Asthenia, grade 3 or greater TEAE: 4 (4%)
  Blood creatinine increase, grade 3 or greater TEAE: 2 (2%)
  Deep vein thrombosis, grade 3 or greater TEAE: 2 (2%)
  Diarrhoea, grade 3 or greater TEAE: 3 (3%)
  Disease progression, grade 3 or greater TEAE: 2 (2%)
  Fatigue, grade 3 or greater TEAE: 3 (3%)
  Gamma-glutamyltransferase increase, grade 3 or greater TEAE: 3 (3%)
  Hyperglycaemia, grade 3 or greater TEAE: 9 (10%)
  Hypokalaemia, grade 3 or greater TEAE: 3 (3%)
  Hyponatraemia, grade 3 or greater TEAE: 2 (2%)
  Hypophsphataemia, grade 3 or greater TEAE: 5 (5%)
  Lymphopenia, grade 3 or greater TEAE: 6 (7%)
  Mucosal Inflammation, grade 3 or greater TEAE: 7 (8%)
  Muscular weakness, grade 3 or greater TEAE: 2 (2%)
  Nausea, grade 3 or greater TEAE: 2 (2%)
  Neutropenia, grade 3 or greater TEAE: 2 (2%)
  Pruritus, grade 3 or greater TEAE: 3 (3%)
  Rash, grade 3 or greater TEAE: 9 (10%)
  Thrombocytopenia, grade 3 or greater TEAE: 2 (2%)
  Vomiting, grade 3 or greater TEAE: 3 (3%)
Total QD Dosing (N = 29)
  Anaemia, grade 3 or greater TEAE: 1 (3%)
  Aspartate aminotransferase increase, grade 3 or greater TEAE: 0 (0%)
  Asthenia, grade 3 or greater TEAE: 1 (3%)
  Blood creatinine increase, grade 3 or greater TEAE: 0 (0%)
  Deep vein thrombosis, grade 3 or greater TEAE: 0 (0%)
  Diarrhoea, grade 3 or greater TEAE: 1 (3%)
  Disease progression, grade 3 or greater TEAE: 0 (0%)
  Fatigue, grade 3 or greater TEAE: 0 (0%)
  Gamma-glutamyltransferase increase, grade 3 or greater TEAE: 0 (0%)
  Hyperglycaemia, grade 3 or greater TEAE: 4 (14%)
  Hypokalaemia, grade 3 or greater TEAE: 2 (7%)
  Hyponatraemia, grade 3 or greater TEAE: 2 (7%)
  Hypophsphataemia, grade 3 or greater TEAE: 0 (0%)
  Lymphopenia, grade 3 or greater TEAE: 2 (7%)
  Mucosal Inflammation, grade 3 or greater TEAE: 0 (0%)
  Muscular weakness, grade 3 or greater TEAE: 0 (0%)
  Nausea, grade 3 or greater TEAE: 0 (0%)
  Neutropenia, grade 3 or greater TEAE: 0 (0%)
  Pruritus, grade 3 or greater TEAE: 2 (7%)
  Rash, grade 3 or greater TEAE: 7 (24%)
  Thrombocytopenia, grade 3 or greater TEAE: 2 (7%)
  Vomiting, grade 3 or greater TEAE: 0 (0%)
Total QDx3d QW (N = 25)
  Anaemia, grade 3 or greater TEAE: 2 (8%)
  Aspartate aminotransferase increase, grade 3 or greater TEAE: 0 (0%)
  Asthenia, grade 3 or greater TEAE: 1 (4%)
  Blood creatinine increase, grade 3 or greater TEAE: 2 (8%)
  Deep vein thrombosis, grade 3 or greater TEAE: 1 (4%)
  Diarrhoea, grade 3 or greater TEAE: 1 (4%)
  Disease progression, grade 3 or greater TEAE: 0 (0%)
  Fatigue, grade 3 or greater TEAE: 0 (0%)
  Gamma-glutamyltransferase increase, grade 3 or greater TEAE: 1 (4%)
  Hyperglycaemia, grade 3 or greater TEAE: 4 (16%)
  Hypokalaemia, grade 3 or greater TEAE: 0 (0%)
  Hyponatraemia, grade 3 or greater TEAE: 0 (0%)
  Hypophsphataemia, grade 3 or greater TEAE: 3 (12%)
  Lymphopenia, grade 3 or greater TEAE: 2 (8%)
  Mucosal Inflammation, grade 3 or greater TEAE: 4 (16%)
  Muscular weakness, grade 3 or greater TEAE: 1 (4%)
  Nausea, grade 3 or greater TEAE: 1 (4%)
  Neutropenia, grade 3 or greater TEAE: 0 (0%)
  Pruritus, grade 3 or greater TEAE: 1 (4%)
  Rash, grade 3 or greater TEAE: 1 (4%)
  Thrombocytopenia, grade 3 or greater TEAE: 0 (0%)
  Vomiting, grade 3 or greater TEAE: 1 (4%)
Total QDx5d QW (N = 15)
  Anaemia, grade 3 or greater TEAE: 1 (7%)
  Aspartate aminotransferase increase, grade 3 or greater TEAE: 1 (7%)
  Asthenia, grade 3 or greater TEAE: 1 (7%)
  Blood creatinine increase, grade 3 or greater TEAE: 0 (0%)
  Deep vein thrombosis, grade 3 or greater TEAE: 0 (0%)
  Diarrhoea, grade 3 or greater TEAE: 0 (0%)
  Disease progression, grade 3 or greater TEAE: 0 (0%)
  Fatigue, grade 3 or greater TEAE: 2 (13%)
  Gamma-glutamyltransferase increase, grade 3 or greater TEAE: 1 (7%)
  Hyperglycaemia, grade 3 or greater TEAE: 1 (7%)
  Hypokalaemia, grade 3 or greater TEAE: 0 (0%)
  Hyponatraemia, grade 3 or greater TEAE: 0 (0%)
  Hypophsphataemia, grade 3 or greater TEAE: 2 (13%)
  Lymphopenia, grade 3 or greater TEAE: 1 (7%)
  Mucosal Inflammation, grade 3 or greater TEAE: 3 (20%)
  Muscular weakness, grade 3 or greater TEAE: 0 (0%)
  Nausea, grade 3 or greater TEAE: 1 (7%)
  Neutropenia, grade 3 or greater TEAE: 1 (7%)
  Pruritus, grade 3 or greater TEAE: 0 (0%)
  Rash, grade 3 or greater TEAE: 1 (7%)
  Thrombocytopenia, grade 3 or greater TEAE: 0 (0%)
  Vomiting, grade 3 or greater TEAE: 1 (7%)
Total QW Dosing (N = 22)
  Anaemia, grade 3 or greater TEAE: 2 (9%)
  Aspartate aminotransferase increase, grade 3 or greater TEAE: 1 (5%)
  Asthenia, grade 3 or greater TEAE: 1 (5%)
  Blood creatinine increase, grade 3 or greater TEAE: 0 (0%)
  Deep vein thrombosis, grade 3 or greater TEAE: 1 (5%)
  Diarrhoea, grade 3 or greater TEAE: 1 (5%)
  Disease progression, grade 3 or greater TEAE: 2 (9%)
  Fatigue, grade 3 or greater TEAE: 1 (5%)
  Gamma-glutamyltransferase increase, grade 3 or greater TEAE: 1 (5%)
  Hyperglycaemia, grade 3 or greater TEAE: 0 (0%)
  Hypokalaemia, grade 3 or greater TEAE: 1 (5%)
  Hyponatraemia, grade 3 or greater TEAE: 0 (0%)
  Hypophsphataemia, grade 3 or greater TEAE: 0 (0%)
  Lymphopenia, grade 3 or greater TEAE: 1 (5%)
  Mucosal Inflammation, grade 3 or greater TEAE: 0 (0%)
  Muscular weakness, grade 3 or greater TEAE: 1 (5%)
  Nausea, grade 3 or greater TEAE: 0 (0%)
  Neutropenia, grade 3 or greater TEAE: 1 (5%)
  Pruritus, grade 3 or greater TEAE: 0 (0%)
  Rash, grade 3 or greater TEAE: 0 (0%)
  Thrombocytopenia, grade 3 or greater TEAE: 0 (0%)
  Vomiting, grade 3 or greater TEAE: 1 (5%)
